Measured values as given in patent US20110105409A1, “Anticancer Compounds” (priority 2008, published 2011).
Starred links: 1 amine or outer side, 2 acyl side, 3 side chain; linkers in the order of their positions; H or OH if unused. Positions of bridges follow the written chain, without caps; N, C: chain ends. Non-standard residues stand in square brackets, D forms with d. Residues, ends and D or L forms follow the SMILES beside them. ξ: configuration not given here. *: point of attachment. γ4hArg(2R,3R-(OH)2) = N=C(N)NCCC[C@H](N[*:1])[C@@H](O)[C@@H](O)C(=O)[*:2]; Heptanoyl(3R-OH,2R,4R,6-Me3) = CC(C)C[C@@H](C)[C@@H](O)[C@@H](C)C(=O)*; Gln(3S,4R-Me2) = C[C@H]([C@H](N)C(=O)O)[C@@H](C)C(N)=O; ξThr(3R)(O-yl) = C[C@@H](O[*:3])C(N[*:1])C(=O)[*:2]; dTyr(βR-OMe) = CO[C@H](c1ccc(O)cc1)[C@@H](N)C(=O)O; X6 = C[C@H](C(N[*:1])C(=O)[*:2])[C@@H](C)C(N)=O; X7 = CO[C@H](c1ccc(O)cc1)C(N[*:1])C(=O)[*:2]; dAsn(3S-OH) = NC(=O)[C@@H](O)[C@@H](N)C(=O)O; X5 = C[C@@H]1[C@@H](C(=O)*)NC(=O)[C@@H]1C; X4 = CC(C)(O)C(N[*:1])C(O)C(O)C(=O)[*:2]; ξGln(3,4-Me2) = CC(C(N)=O)C(C)C(N)C(=O)O; Abu(3S-NH2) = C[C@H](N)[C@H](N)C(=O)O; ξAsn(3ξ-OMe) = COC(C(N)=O)C(N)C(=O)O; d(aThr) = C[C@@H](O)[C@@H](N)C(=O)O; NMeQ = CN[C@@H](CCC(N)=O)C(=O)O; X1 = CC(C)CC(C)/C=C\C(O)CC(=O)*; ξThr(3R) = C[C@@H](O)C(N)C(=O)O; X3 = CCC(C)CC(C)C(O)C(C)C(=O)*; NMeL = CN[C@@H](CC(C)C)C(=O)O; X2 = CCCC(C)/C=C\C(O)CC(=O)*; Pip = O=C(O)[C@@H]1CCCCN1; NMeA = CN[C@@H](C)C(=O)O; dDap = NC[C@@H](N)C(=O)O; ξOrn = NCCCC(N)C(=O)O

Columns and labels:
HT29 = experiment: SRB colorimetric cytotoxicity assay, HT29; format: cell-based, human; conditions: for TGI / GI50: HT29, 72 hours treatment, SRB; for CC50 / GI50: Homo sapiens; for CC50: HT-29, 72 h, read-out: LC50; for GI50: HT-29
Source text: (§1) The aim of this assay is to evaluate the in vitro cytostatic (ability to delay or arrest tumor cell growth) or cytotoxic (ability to kill tumor cells) activity of the samples being tested.
(§2) A colorimetric assay, using sulforhodamine B (SRB) reaction has been adapted to provide a quantitative measurement of cell growth and viability (following the technique described by Skehan et al. J. Natl. Cancer Inst. 1990, 82, 1107-1112).
(§3) This form of assay employs SBS-standard 96-well cell culture microplates (Faircloth et al. Methods in Cell Science, 1988, 11(4), 201-205; Mosmann et al, Journal of Immunological Methods, 1983, 65(1-2), 55-63). All the cell lines used in this study were obtained from the American Type Culture Collection (ATCC) and derive from different types of human cancer.
(§4) Cells were maintained in Dulbecco's Modified Eagle Medium (DMEM) supplemented with 10% Fetal Bovine Serum (FBS), 2 mM L-glutamine, 100 U/mL penicillin and 100 U/mL streptomycin at 37° C., 5% CO2 and 98% humidity. For the experiments, cells were harvested from subconfluent cultures using trypsinization and resuspended in fresh medium before counting and plating.
(§5) Cells were seeded in 96 well microtiter plates, at 5×10^3-7.5×10^3 cells per well in aliquots of 150 μL, and allowed to attach to the plate surface for 18 hours (overnight) in drug free medium. After that, one control (untreated) plate of each cell line was fixed (as described below) and used for time zero reference value. Culture plates were then treated with test compounds (50 μL aliquots of 4× stock solutions in complete culture medium plus 4% DMSO) using ten serial dilutions (concentrations ranging from 10 to 0.00262 μg/mL) and triplicate cultures (1% final concentration of DMSO). After 72 hours treatment, the antitumor effect was measured by using the SRB methodology: Briefly, cells were washed twice with PBS, fixed for 15 min in 1% glutaraldehyde solution at room temperature, rinsed twice in PBS, and stained in 0.4% SRB solution for 30 min at room temperature. Cells were then rinsed several times with 1% acetic acid solution and air-dried at room temperature. SRB was then extracted in 10 mM trizma base solution and the absorbance measured in an automated spectrophotometric plate reader at 490 nm. Effects on cell growth and survival were estimated by applying the NCI algorithm (Boyd M R and Paull K D. Drug Dev. Res. 1995, 34, 91-104).
(§6) Using the mean±SD of triplicate cultures, a dose-response curve was automatically generated using nonlinear regression analysis. Three reference parameters were calculated (NCI algorithm) by automatic interpolation: GI50=compound concentration that produces 50% cell growth inhibition, as compared to control cultures; TGI=compound concentration that produces total cell growth inhibition (cytostatic effect), as compared to control cultures, and LC50=compound concentration that produces 50% net cell killing (cytotoxic effect).

A549 = experiment: SRB colorimetric cytotoxicity assay, A549; format: cell-based, human; conditions: for TGI / GI50: A549, 72 hours treatment, SRB; for CC50 / GI50: Homo sapiens; for CC50: A549, 72 h, read-out: LC50
Source text: as §1, §2, §3, §4, §5, §6

MDA-MB-231 = experiment: SRB colorimetric cytotoxicity assay, MDA-MB-231; format: cell-based, human; conditions: for CC50 / GI50: Homo sapiens; for CC50: MDA-MB-231, 72 h, read-out: LC50; for GI50 / TGI: MDA-MB-231, 72 hours treatment, SRB
Source text: as §1, §2, §3, §4, §5, §6

HIV-1RF = conditions: infection of human T-lymphoblastoid cells by HIV-1RF in vitro; cited from earlier work
[1] = tested on: panel of human cancer cell lines; conditions: mean over panel of human cancer cell lines; cited from earlier work
[2] = tested on: NSCLC-N6, E39, P388, and M96 tumor cells; conditions: range over NSCLC-N6, E39, P388 and M96 tumor cells; cited from earlier work
HIV-1 = conditions: cytoprotective activity against HIV-1 infection; cited from earlier work
[3] = tested on: HCT-116 (human colon tumor); conditions: HCT-116 cell line, cytotoxic activity; cited from earlier work
[4] = tested on: CEM-TART (CEM T-cells expressing both HIV-1 tat and rev); conditions: CEM-TART cell line, cytotoxic activity; cited from earlier work
Candida albicans = conditions: 100 μg/disc (6 mm); cited from earlier work
guinea pig atria = conditions: cited from earlier work
[5] = tested on: CEM4 lymphocytic cell lines; conditions: CEM4 lymphocytic cell lines infected with HIV-1 (Lai strain); cited from earlier work
Na^+/Ca^2+ exchanger = conditions: cited from earlier work
HIV-1 (Lai strain) = conditions: CEM4 cells; cited from earlier work

With CCCC(C)/C=C\C(O)CC(=O)N[C@@H](C(=O)N[C@@H](C(=O)N[C@H](C(=O)NC(C(=O)N[C@H]1C(=O)N[C@H](COC)C(=O)NCC(=O)N[C@@H](CC(C)C)C(=O)N(C)[C@@H](CCC(N)=O)C(=O)N[C@H]([C@H](OC)c2ccc(O)cc2)C(=O)N(C)[C@@H](C)C(=O)O[C@@H]1C)C(C)C(C)C(N)=O)[C@H](C)N)[C@@H](C)O)[C@H](O)C(N)=O (stereo partly drawn) [Stellatolide B] (X2-[dAsn(3S-OH)][d(aThr)][Abu(3S-NH2)][ξGln(3,4-Me2)][d(aThr)][dS](Me)GL[NMeQ][dTyr(βR-OMe)][NMeA]; ester 5-C) the TGI (HT29) was 1.60E−06 Molar, the CC50 (HT29) was 2370 nM and the GI50 (HT29) was 1150 nM. The TGI (A549) was 1.09E−06 Molar, the CC50 (A549) was 1920 nM and the GI50 (A549) was 640 nM. It also gave a CC50 (MDA-MB-231) of 1730 nM, a GI50 (MDA-MB-231) of 704 nM and a TGI (MDA-MB-231) of 1.09E−06 Molar.
In the case of papuamide B, the EC50 (HIV-1RF) is listed as “approximately 4 ng/mL”.
In the case of papuamide A, the “mean IC50” value [1] is listed as 75 ng/mL and the EC50 (HIV-1RF) is listed as “approximately 4 ng/mL”.
For CO[C@H](c1ccc(O)cc1)[C@H]1NC(=O)[C@H](CCC(N)=O)N(C)C(=O)[C@H](CC(C)C)NC(=O)[C@@H](CCCNC(=N)N)NC(=O)[C@@H]([C@@H](C)O)NC(=O)[C@H](NC(=O)[C@H]2NC(=O)[C@H](C)[C@@H]2C)[C@@H](C)OC(=O)[C@H](C)N(C)C1=O [callipeltin B] (X5-[d(aThr)][d(aThr)][dR]L[NMeQ][dTyr(βR-OMe)][NMeA]; ester 1-C), the IC50 [2] is given as 1.3 to >30 μg/mL.
For CO[C@H](c1ccc(O)cc1)C1NC(=O)[C@H](CCC(N)=O)N(C)C(=O)[C@H](CC(C)C)NC(=O)[C@@H](CCCNC(=N)N)NC(=O)C([C@@H](C)O)NC(=O)C(NC(=O)C(NC(=O)[C@H](O)[C@H](O)[C@H](CCCNC(=N)N)NC(=O)[C@H](CC(N)=O)NC(=O)[C@H](C)[C@H](O)[C@H](C)CC(C)C)[C@@H](C)[C@@H](C)C(N)=O)[C@@H](C)OC(=O)[C@@H]2CCCCN2C(=O)[C@@H](CC(N)=O)NC1=O (stereo partly drawn) [neamphamide A] ({Heptanoyl(3R-OH,2R,4R,6-Me3)}-N[γ4hArg(2R,3R-(OH)2)][X6][ξThr(3R)(O-yl)][ξThr(3R)][dR]L[NMeQ][X7][dN][Pip]; ester 4-C), the EC50 (HIV-1) is listed as ~28 nM.
Work on COC[C@H]1NC(=O)[C@H](NC(=O)C(NC(=O)[C@@H](NC(=O)[C@H](NC(=O)[C@H](NC(=O)CC(O)/C=C\C(C)CC(C)C)[C@H](O)C(N)=O)[C@@H](C)O)[C@H](C)N)C(C)C(C)C(N)=O)[C@@H](C)OC(=O)[C@H](C)N(C)C(=O)[C@@H]([C@H](OC)c2ccc(O)cc2)NC(=O)[C@H](CCC(N)=O)N(C)C(=O)[C@H](CC(C)C)NC(=O)CNC1=O (stereo partly drawn) [Stellatolide A] (X1-[dAsn(3S-OH)][d(aThr)][Abu(3S-NH2)][ξGln(3,4-Me2)][d(aThr)][dS](Me)GL[NMeQ][dTyr(βR-OMe)][NMeA]; ester 5-C) yielded a TGI (HT29) of 8.88E−07 Molar, a CC50 (HT29) of 1330 nM and a GI50 (HT29) of 603 nM. It also gave a TGI (A549) of 1.97E−07 Molar, a CC50 (A549) of 406 nM and a GI50 (A549) of 101 nM. It also gave a CC50 (MDA-MB-231) of 761 nM, a GI50 (MDA-MB-231) of 330 nM and a TGI (MDA-MB-231) of 4.95E−07 Molar.
In the case of CCC(C)CC(C)C(O)C(C)C(=O)N[C@H](CN)C(=O)NC(C(O)C(O)C(=O)NC(C(=O)N[C@H]1C(=O)N[C@H]([C@@H](C)O)C(=O)NC(CCCN)C(=O)N[C@@H](CC(C)C)C(=O)N(C)[C@@H](CCC(N)=O)C(=O)NC(C(OC)C(N)=O)C(=O)N[C@H](CC(N)=O)C(=O)N(C)[C@@H](CC(C)C)C(=O)O[C@@H]1C)C(C)C(C)C(N)=O)C(C)(C)O (stereo partly drawn) [theopapuamide] (X3-[dDap][X4][ξGln(3,4-Me2)][d(aThr)][d(aThr)][ξOrn]L[NMeQ][ξAsn(3ξ-OMe)][dN][NMeL]; ester 4-C), the EC50 [3] is given as 900 nM and the EC50 [4] is given as 500 nM.
For CO[C@H](c1ccc(O)cc1)[C@H]1NC(=O)[C@H](CCC(N)=O)N(C)C(=O)[C@H](CC(C)C)NC(=O)[C@@H](CCCN=C(N)N)NC(=O)[C@H]([C@@H](C)O)NC(=O)[C@@H](NC(=O)[C@@H](NC(=O)[C@H](O)[C@H](O)[C@H](CCCN=C(N)N)NC(=O)[C@@H](C)NC(=O)[C@H](C)[C@H](O)[C@H](C)CC(C)C)[C@@H](C)[C@@H](C)C(N)=O)[C@@H](C)OC(=O)[C@H](C)N(C)C1=O [callipeltin A] ({Heptanoyl(3R-OH,2R,4R,6-Me3)}-[dA][γ4hArg(2R,3R-(OH)2)][Gln(3S,4R-Me2)]TT[dR]L[NMeQ][dTyr(βR-OMe)][NMeA]; ester 4-C), the “inhibition of growth (zone)” value (Candida albicans) is given as 30 mm, the inotropic effect (guinea pig atria) is given as “positive inotropic agent” and the CD50 [5] is given as 0.29 µg/mL. The “inhibition of the Na+/Ca2+ exchanger” value (Na^+/Ca^2+ exchanger) was “selective and powerful inhibitor” and the “selectivity index (SI ratio CD50/ED50)” value (HIV-1 (Lai strain)) was 29.
